According to US20230201185A1, “TREATMENT OF TYPE 2 DIABETES OR OBESITY OR OVERWEIGHT WITH 2-[(4-{6-[(4-CYANO-2-FLUOROBENZYL)OXY]PYRIDIN-2-YL}PIPERIDIN-1-YL)METHYL]-1-[(2S)-OXETAN-2-YLMETHYL]-1H-BENZIMIDAZOLE-6-CARBOXYLIC ACID OR A PHARMACEUTICALLY SALT THEREOF” (Pfizer Inc., priority 2020, published 2023):
Read-outs that look alike come from different tables or passages of the source.

What was measured:
Assay type in all cases: in vivo, human
[1] = test system: participants with type 2 diabetes mellitus (T2DM); assay: Clinical dose guiding study: 24-hour mean daily glucose (MDG); conditions: Day 28; for Mean Daily Glucose, Mean CFB: oral, on metformin
Source text: (§1) This study was a randomized, double-blind (sponsor-open), parallel, placebo-controlled, multiple oral dose-escalating study of Compound 1 (in the form of its tris salt) in participants with type 2 diabetes mellitus (T2DM) on a background of metformin monotherapy.
(§2) A total of 98 participants received oral doses of Compound 1 (in the form of its tris salt) or matching placebo for 28 days, in this study. A total of approximately 12 participants were enrolled in each cohort with a randomization ration of 3:1 (9 active and 3 placebo), and 8 cohorts were enrolled in the study. Participants were admitted to the clinical research unit (CRU) on or before Day −2 and were discharged following completion of all assessments on Day 30, at principal investigator discretion. For individual participants, the total duration of participation from the Screening visit to the on-site Follow-up visit was approximately 15 weeks. A Follow-up visit and a Follow-up contact (which have been conducted by phone call) occurred 35-42 days and 56-63 days following the first dose of investigational product on Day 1, respectively. Participants who discontinued prior to completion of the study might have been replaced, at the discretion of the principal investigator and Sponsor. 92 participants completed the inpatient study.
(§3) The planned titration schemes and dosing paradigms for all Cohorts are listed in Table 2-1. • QD: once daily • BID: twice daily
(§4) Diagnosis and Main Criteria for Inclusion: The population for this study was female participants of non-childbearing potential and/or male participants with T2DM, with an HbA1c […], who were taking metformin as their only anti-hyperglycemic treatment, and who were between 18 and 70 years with T2DM at the time of consent and Screening, with a body mass index (BMI) of 24.5 to 45.4 kg/m^2 and a total body weight >50 kg (110 lb). Metformin dose was required to be 500 mg per day and was required to be stable, for at least 2 months prior to the Screening visit and was administered in the CRU according to patient's baseline dosing regimen.
(§5) Study Treatment: Compound 1 (in the form of its tris salt) was supplied as 1 mg, 10 mg, 50 mg and 100 mg immediate release (IR) tablets or 50 mg controlled release (CR) tablets (see Examples 1 and 2) for oral administration. Matching placebo tablets (2:1, Microcrystalline Cellulose: Lactose) were also provided.
(§6) Measurements of fasting plasma glucose (FPG), 24-hour mean daily glucose (MDG), HbA1C, and body weight at baseline (at Day −1) and at Day 28 (shown as change from baselin) are shown in Tables 2-2 to 2-5.
(§7) Baseline was defined as the measurement (MDG, FPG, HbA1c, or body weight) on Day −1. Randomized treatment represented the target dose at Day 28.
Observed data presented. Mean Daily Glucose (MDG) was defined as AUC24/24.

[2] = test system: participants with type 2 diabetes mellitus (T2DM); assay: Clinical dose guiding study: ECG; conditions: planned treatment groups; self-limited
Source text: as §1
as §2, with “inpatient study. […]” for “inpatient study.”

[3] = test system: participants with type 2 diabetes mellitus (T2DM); assay: Clinical dose guiding study: fasting plasma glucose (FPG); conditions: Day 28, oral, on metformin
Source text: as §1, §2, §3, §4, §5, §6, §7

[4] = Clinical dose guiding study: plasma pharmacokinetics and urinary recovery; conditions: for Tmax: read-out: median Tmax and Tmax1
Source text: as §1, §2, §5

[5] = test system: participants with type 2 diabetes mellitus (T2DM); assay: Clinical dose guiding study: HbA1c; conditions: Day 28, oral, on metformin
Source text: as §1, §2, §3, §4, §5, §6, §7

[6] = Clinical dose guiding study: body weight; conditions: Day 28, oral, T2DM on metformin
Source text: as §1, §2, §3, §4, §5, §6, §7

[7] = test system: participants with type 2 diabetes mellitus (T2DM); assay: Clinical dose guiding study: adverse events (TEAEs); conditions: for number of all causality TEAEs (events) / number of all causality TEAEs: 28 days
Source text: as §1, §2, §5

N#Cc1ccc(COc2cccc(C3CCN(Cc4nc5ccc(C(=O)O)cc5n4C[C@@H]4CCO4)CC3)n2)c(F)c1 [1,3-dihydroxy-2-(hydroxymethyl)propan-2-aminium 2-[(4-{6-[(4-cyano-2-fluorobenzyl)oxy]pyridin-2-yl}piperidin-1-yl)methyl]-1-[(2S)-oxetan-2-ylmethyl]-1H-benzimidazole-6-carboxylate]
Mean Daily Glucose, Mean CFB ([1]; 10 mg BID, baseline 189.9): -53.3 mg/dL | Mean Daily Glucose, Mean CFB ([1]; 15 mg BID, baseline 225.4): -85.9 mg/dL | Mean Daily Glucose, Mean CFB ([1]; 50 mg BID, baseline 190.2): -48.7 mg/dL | Mean Daily Glucose, Mean CFB ([1]; 70 mg BID, baseline 218.5): -101.6 mg/dL | Mean Daily Glucose, Mean CFB ([1]; 120 mg BID Slow Titration, baseline 179.9): -68.6 mg/dL | Mean Daily Glucose, Mean CFB ([1]; 120 mg BID, baseline 219.0): -105.9 mg/dL | Mean Daily Glucose, Mean CFB ([1]; 120 mg QD, baseline 188.8): -70.9 mg/dL | Mean Daily Glucose, Mean CFB ([1]; 200 mg QD Controlled Release, baseline 225.2): -102.8 mg/dL | reductions in FPG, MDG, HbA1c, and body weight ([1]; increasing efficacy at higher doses of 70 mg to 120 mg twice daily): robust reductions | participants with post-baseline ECG meeting criteria of QTcF interval >450 and ≤80 or change from baseline >30 and ≤60 [2]: 3 participants | Fasting Plasma Glucose, Mean CFB ([3]; 10 mg BID, baseline 158.3): -34.3 mg/dL | Fasting Plasma Glucose, Mean CFB ([3]; 15 mg BID, baseline 198.4): -66.6 mg/dL | Fasting Plasma Glucose, Mean CFB ([3]; 50 mg BID, baseline 168.1): -34.5 mg/dL | Fasting Plasma Glucose, Mean CFB ([3]; 70 mg BID, baseline 186.3): -80.6 mg/dL | Fasting Plasma Glucose, Mean CFB ([3]; 120 mg BID Slow Titration, baseline 176.3): -75.1 mg/dL | Fasting Plasma Glucose, Mean CFB ([3]; 120 mg BID, baseline 196.9): -89.7 mg/dL | Fasting Plasma Glucose, Mean CFB ([3]; 120 mg QD, baseline 179.9): -48.3 mg/dL | Fasting Plasma Glucose, Mean CFB ([3]; 200 mg QD Controlled Release, baseline 195.3): -77.3 mg/dL | dose proportionality of exposure (dose normalized mean AUC24) ([4]; Day 1, BID and QD treatments, IR formulation): approximately dose proportional | dose proportionality of AUC24 and Cmax ([4]; Day 28, BID IR formulation cohorts): approximately dose-proportional | Tmax ([4]; human, plasma, Day 1, single oral dose, IR formulation, QD and BID regimens): 2 to 4 h | HbA1c, Mean CFB ([5]; 10 mg BID, baseline 8.2): −0.8% | HbA1c, Mean CFB ([5]; 15 mg BID, baseline 8.6): −0.9% | HbA1c, Mean CFB ([5]; 50 mg BID, baseline 8.3): −1.2% | HbA1c, Mean CFB ([5]; 70 mg BID, baseline 8.3): −1.2% | HbA1c, Mean CFB ([5]; 120 mg BID Slow Titration, baseline 8.2): −1.2% | HbA1c, Mean CFB ([5]; 120 mg BID, baseline 8.5): −1.2% | HbA1c, Mean CFB ([5]; 120 mg QD, baseline 8.2): −1.0% | HbA1c, Mean CFB ([5]; 200 mg QD Controlled Release, baseline 8.6): −1.1% | Body Weight, Mean CFB ([6]; 10 mg BID, baseline 99.90): -2.8 kg | Body Weight, Mean CFB ([6]; 15mg BID, baseline 93.60): -2.4 kg | Body Weight, Mean CFB ([6]; 50 mg BID, baseline 88.24): -2.4 kg | Body Weight, Mean CFB ([6]; 70 mg BID, baseline 86.08): -4.0 kg | Body Weight, Mean CFB ([6]; 120 mg BID Slow Titration, baseline 88.01): -5.5 kg | Body Weight, Mean CFB ([6]; 120 mg BID, baseline 101.34): -7.9 kg | Body Weight, Mean CFB ([6]; 120 mg QD, baseline 84.88): -4.3 kg | Body Weight, Mean CFB ([6]; 200 mg QD Controlled Release, baseline 92.29): -3.1 kg | incidence of all causalities TEAEs in Gastrointestinal Disorders category ([7]; 10 mg BID group (placebo 52.0%)): 33.3% | number of all causality TEAEs (events) ([7]; 10 mg BID group): 8 events | number of all causality TEAEs (events) ([7]; 15 mg BID group): 16 events | participants discontinued from the study due to treatment-related TEAEs ([7]; 15 mg BID group, moderate TEAE of headache): 1 participant | participants with dose reduction or temporary discontinuation due to TEAEs ([7]; 50 mg BID group): 4 participants | number of all causality TEAEs ([7]; 50 mg BID group): 45 | participants discontinued from the study due to treatment-related TEAEs ([7]; 50 mg BID group, moderate decreased appetite, nausea, vomiting and mild fatigue): 1 participant | number of all causality TEAEs ([7]; 70 mg BID group): 31 | participants with dose reduction or temporary discontinuation due to TEAEs ([7]; 120 mg BID Slow titration group): 2 participants | participants with dose reduction or temporary discontinuation due to TEAEs ([7]; 120 mg BID group): 1 participants | number of all causality TEAEs ([7]; 120 mg BID group): 43 | participants with mild hypoglycemia ([7]; 120 mg BID group, after missing a meal or snack, self-limited, treatment-related): 1 participant | severe TEAEs ([7]; 120 mg BID slow titration group, 1 treatment-related, 1 not): 2 | number of all causality TEAEs (events) ([7]; 120 mg BID slow titration group): 50 events | SAE ([7]; 120 mg BID slow titration group, not treatment-related): 1 | number of all causality TEAEs ([7]; 120 mg QD group): 35 | participants with dose reduction or temporary discontinuation due to TEAEs ([7]; 200 mg QD CR group): 1 participants | number of all causality TEAEs ([7]; 200 mg QD CR group): 47 | adverse trends in safety laboratory tests, vital signs or ECG parameters with increasing dose ([7]; ascending, multiple, oral doses): no clinically significant adverse trends | overall safety and tolerability ([7]; ascending, multiple, oral doses, adult participants with T2DM): generally safe and well-tolerated

N#Cc1ccc(COc2cccc(C3CCN(Cc4nc5ccc(C(=O)O)cc5n4C[C@@H]4CCO4)CC3)n2)c(F)c1 [Compound 1, 2-[(4-{6-[(4-Cyano-2-fluorobenzyl)oxy]pyridin-2-yl}piperidin-1-yl)methyl]-1-[(2S)-oxetan-2-ylmethyl]-1H-benzimidazole-6-carboxylic acid]
Urinary recovery, dose recovered unchanged in urine ([4]; Day 28): < 0.1 % of the dose | Tmax ([4]; human, plasma, oral, Day 28, BID and QD IR treatments): 3 to 10 h | half-life ([4]; human, plasma, oral, across all treatments, read-out: Mean t % (terminal half life)): 4.7 to 8.1 h
